Consider twelve compounds from paper PMC9877305, “Cytotoxic hexadepsipeptides and anti-coronaviral 4-hydroxy-2-pyridones from an endophytic Fusarium sp” (Frontiers in Chemistry, 2023).

By IC50 is commonly meant the concentration that gives 50% inhibition. For orientation: melting point means the temperature, or range, at which the solid turns liquid.

In brackets after ≈: the same amount, converted by molar mass.

The subject of series [1] is human pancreatic cancer cell line (ASPC-1). Put plainly: Cytotoxic activity by CCK-8 method. The series is classed as cell-based. The protocol: The cytotoxic effects of all compounds against human pancreatic cancer cell line (ASPC-1) were evaluated by CCK-8 method.
Background: Tetrazolium dyes change colour on reduction, which living cells bring about.

The subject of another series is H460 cells. The series can be described thus: Half toxic concentration in the antiviral assay host cells. It is filed as cell-based. The procedure:
(§1) Briefly, the H460 cells were inoculated into 96 well culture plates and cultured at 35°C under 5% CO2 condition, and infected by HCoV-OC43 virus with 100 times 50% tissue culture infective dose (TCID50) 24 h later; then the positive control drugs and test compounds were added. The half inhibitory concentration (IC50) and the half toxic concentration (TC50) were determined by the Reed and Muench method. The selectivity index (SI) was calculated as the ratio of TC50/IC50.

The subject of a further series is coronavirus (HCoV-OC43). Put plainly: microbe, parasite or virus in culture. The series is classed as cell-based. The following applies: for SI (TC50/IC50): HCoV-OC43 in H460 cells. The protocol: as §1
Series [2] has as its system pancreatic cancer cell line PANC-1. More on the design: method as in Wang et al., 2019. The following applies: PANC-1 cells; ref Wang et al., 2019; cited from earlier work.
Where [3] appears, read: Homo sapiens, ASPC1, AsPC-1 cells.
[4] abbreviates: Betacoronavirus 1, OC43, NCI-H460, HCoV-OC43 (100 TCID50) in H460 cells.

The compound `CC(C)C1OC(=O)C(Cc2ccccc2)NC(=O)C(C(C)C)OC(=O)C(Cc2ccccc2)N(C)C(=O)C(C(C)C)OC(=O)C(Cc2ccccc2)NC1=O` (centres unmarked) [Compound 2, Beauvericin M] yielded a melting point of 85 to 86 °C. Besides, the IC50 in series [1] (setting [3]) is above 90 µM.

Take `CC[C@H](C)C[C@@H](C)/C=C(\C)[C@@H]1O[C@H](c2c(O)c(-c3ccc(O)cc3)cn(C)c2=O)CC[C@H]1C` [Compound 6, (–)-sambutoxin]: the TC50 in the series with H460 cells was below 0.02 µg/mL. Moreover, the IC50 in series [1] (setting [3]) was above 90 µM.

As to `CC1OC(=O)C(Cc2ccccc2)N(C)C(=O)C(C(C)C)OC(=O)C(Cc2ccccc2)N(C)C(=O)C(C(C)C)OC(=O)C(Cc2ccccc2)N(C)C1=O` (centres unmarked) [Compound 3, Beauvericin N], the melting point lay in the range of 82 to 83 °C. Also, the IC50 in series [1] (setting [3]) is above 90 µM.

Turning to beauvericin [Compound 4], in series [1] (AsPC-1 cells), the IC50 was determined as 3.45 µM.

The compound `CC(C)C1OC(=O)C(Cc2ccccc2)N(C)C(=O)C(C(C)C)OC(=O)C(Cc2ccccc2)N(C)C(=O)C(C(C)C)OC(=O)C(Cc2ccccc2)NC1=O` (centres unmarked) [Compound 5, beauvericin D] returned an IC50 in series [1] (setting [3]) above 90 µM.

`CC[C@H](C)C[C@@H](C)/C=C(\C)[C@@H]1O[C@H](c2c3c(cn(C)c2=O)[C@@]2(OC)CCC(=O)C[C@@H]2O3)CC[C@H]1C` [Compound 9, (–)-fusoxypyridone] registered a TC50 in the series on H460 cells of 11.55 µg/mL (≈ 23.8 µM). Moreover, the IC50 is 18.8 µM in series [1] (setting [3]) and above 6.67 µg/mL in the series on coronavirus (HCoV-OC43) (setting [4]).

`CC[C@H](C)C[C@@H](C)/C=C(\C)[C@@H]1O[C@H](c2c(O)c([C@@]3(O)CCC(=O)C[C@@H]3O)cn(C)c2=O)CC[C@H]1C` [Compound 7, (–)-oxysporidinone] came in with a TC50 in the series on H460 cells of 23.09 µg/mL (≈ 47.2 µM). In addition, the IC50 came to 17.6 µM in series [1] (setting [3]) and 13.3 µg/mL (≈ 27.2 µM) in the series on coronavirus (HCoV-OC43) (setting [4]). In addition, in the series on coronavirus (HCoV-OC43), the “SI (TC50/IC50)” value is 1.7.

`NC(=O)c1ncn([C@@H]2O[C@H](CO)[C@@H](O)[C@H]2O)n1` [Ribavirin, ribavirin, reference compound]: in the series with H460 cells, the TC50 is 100 µg/mL (≈ 409 µM). The compound also gave an IC50 in the series with coronavirus (HCoV-OC43) (setting [4]) of 19.2 µg/mL (≈ 78.8 µM). For the same compound, in the series on coronavirus (HCoV-OC43), the “SI (TC50/IC50)” value is 5.2.

With `CC(C)=CCc1c(O)cc(O)c(C=O)c1C(=O)c1c(O)cc(C)c(Cl)c1O` [E], in series [2], the IC50 was 7.2 µM.

Regarding `Nc1ccn([C@@H]2O[C@H](CO)[C@@H](O)C2(F)F)c(=O)n1` [Gemcitabine, gemcitabine, reference compound], the midpoint of inhibition in series [1] (setting [3]), the IC50, lay at 1.53 µM.

Compound `CC(C)C(O)C(=O)N(C)C(Cc1ccccc1)C(=O)OC(C(=O)N(C)C(Cc1ccccc1)C(=O)OC(C(=O)N(C)C(Cc1ccccc1)C(=O)O)C(C)C)C(C)C` (centres unmarked) [Compound 1, Secobeauvericin A] gave an IC50 in series [1] (setting [3]) above 90 µM.

Consider `CC[C@H](C)C[C@@H](C)/C=C(\C)[C@@H]1O[C@H](c2c3c(cn(C)c2=O)[C@@]2(O)CCC(=O)C[C@@H]2O3)CC[C@H]1C` [Compound 8, fusapyridon A], for which the TC50 with H460 cells was determined as 11.55 µg/mL (≈ 24.5 µM). In addition, the IC50 in series [1] (setting [3]) stood at 29.7 µM; in the series on coronavirus (HCoV-OC43) (setting [4]) it was 6.67 µg/mL (≈ 14.1 µM); in the series with coronavirus (HCoV-OC43) (Betacoronavirus 1, OC43, NCI-H460, HCoV-OC43, unit as printed in running text) it was 6.65 µg/mL (≈ 14.1 µM). Also, the “SI (TC50/IC50)” value in the series on coronavirus (HCoV-OC43) came to 1.7.
